Legend:
[1] = molecular target: T1, 0N4R Tau fibrils (Homo sapiens, UniProt P10636); assay: ^3H-THK5117 competition binding to tau fibrils in vitro; settings: for IC50: 3 nM [^3H]-THK5117, recombinant 0N4R tau fibrils, average if run more than once; for Selectivity for tau relative to Aβ: calculated from [^3H]-THK5117 tau and [^3H]-AZD2184 Aβ assays
T1 construct: made in house
Experimental: Preparation of recombinant 0N4R Tau fibrils was performed as previously described in Morozova, O. A., Biochemistry (2013), Vol., 52(40), pages 6960-6967. Competition binding experiments to 0N4R Tau fibrils were performed by incubating increasing concentrations [10^−10-10^−6 M] of the Example compounds of the invention, or the known tau specific ligand PBB3 (PBB3 was synthesized as previously described in M. Maruyama, et al, Neuron 2013, 79, 1094-1108) or MK6240 (Novandi Chemistry AB), in the presence of 3 nM of the known tau ligand [^3H]-THK5117 (Novandi Chemistry) and 0.2 mM 0N4R tau fibrils in binding buffer (50 mM Tris-HCl, pH 7.4, 0.1% BSA) for 1 h in the dark, and at 22° C. The incubation was terminated by filtration through a Whatman GF/B glass filter (Whatman International, Kent, UK) using a Brandel cell harvester. The filter was then washed rapidly four times with 3 mL of ice-cold wash buffer (5 mM Tris-HCl, 0.25 mM NaCl, 5% EtOH), and equilibrated for 1 h in scintillation vials containing 5 mL of Ultima Gold scintillation fluid before being analysed using a Liquid Scintillation Analyzer.
The results are shown in Table 2 in the column labeled “Tau IC50”.
Relative selectivity for tau compared to Aβ for the exemplified compounds was calculated using the results for the [^3H]-THK5117 tau and [^3H]-AZD2184 Aβ assays described above. The calculated results are shown in Table 2 in the column labeled “Selectivity for tau relative to Aβ”.

[2] = molecular target: T2, Aβ(1-42) amyloid fibrils (Homo sapiens, UniProt P05067); assay: ^3H-AZD2184 competition binding to Aβ(1-42) fibrils in vitro; settings: [^3H]-AZD2184, Aβ(1-42) amyloid fibrils; average if run more than once
T2 construct: Aβ(1-42) amyloid fibrils
Experimental: Competition binding experiments to Aβ(1-42) amyloid fibrils were performed as previously described in Jureus, A., et al, Journal of Neurochemistry (2010), Vol. 114, pages 784-794 for the Example compounds of the invention indicated in Table 2, or the known tau specific ligand PBB3 (PBB3 was synthesized as previously described in M. Maruyama, et al, Neuron 2013, 79, 1094-1108).
The results are shown in Table 2 in the column labeled “Aβ IC50”.

T1 sequence (P10636 1-383 isoform P10636-6): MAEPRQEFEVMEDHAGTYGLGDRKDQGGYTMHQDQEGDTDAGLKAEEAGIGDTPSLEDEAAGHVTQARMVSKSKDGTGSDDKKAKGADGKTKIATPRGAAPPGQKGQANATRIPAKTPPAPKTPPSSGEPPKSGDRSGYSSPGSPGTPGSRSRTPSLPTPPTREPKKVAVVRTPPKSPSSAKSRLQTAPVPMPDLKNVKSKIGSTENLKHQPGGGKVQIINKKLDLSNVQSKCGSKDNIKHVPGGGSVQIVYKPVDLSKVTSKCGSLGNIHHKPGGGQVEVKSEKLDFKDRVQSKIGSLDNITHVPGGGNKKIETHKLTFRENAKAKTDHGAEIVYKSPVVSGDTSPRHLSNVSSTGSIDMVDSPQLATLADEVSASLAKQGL
T2 sequence (P05067 672-713): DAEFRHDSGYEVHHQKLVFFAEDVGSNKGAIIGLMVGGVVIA

Compound	IC50 [1]	IC50 [2]	Selectivity for tau relative to Aβ [1]
COc1ccc2[nH]c(-c3ccc(N4CCC(CCO)CC4)nc3)cc2c1 [Compound 51, 2-{1-[5-(5-Methoxy-1H-indol-2-yl)pyridin-2-yl]piperidin-4-yl}ethan-1-ol]	0.013 µM	–	–
FCCCCOC1CCN(c2ccc(-c3nc4ccccc4s3)cn2)CC1 [Compound 5]	0.005 µM	0.024 µM	4.8
OCC1CCN(c2ncc(-c3cc4cc(OCCF)ccc4[nH]3)cn2)CC1 [Compound 72, (1-{5-[5-(2-Fluoroethoxy)-1H-indol-2-yl]pyrimidin-2-yl}piperidin-4-yl)methanol]	0.007 µM	0.042 µM	6
FCCC1CCN(c2ncc(-c3cn4ccccc4n3)cn2)CC1 [Compound 52]	0.049 µM	0.084 µM	1.7
Oc1ccc2[nH]c(-c3cnc(N4CCC(CF)CC4)nc3)cc2c1 [Compound 69, 2-{2-[4-(Fluoromethyl)piperidin-1-yl]pyrimidin-5-yl}-1H-indol-5-ol]	0.01 µM	0.169 µM	17
NC(=O)COC1CCN(c2ccc(-c3nc4ccccc4s3)cn2)CC1 [Compound 10]	0.031 µM	–	–
OCCC1CCN(c2ccc(-c3cc4ccccc4s3)cn2)CC1 [Compound 50, 2-{1-[5-(1-Benzothiophen-2-yl)pyridin-2-yl]piperidin-4-yl}ethan-1-ol]	0.004 µM	–	–
CS(=O)(=O)OCCC1CCN(c2ncc(-c3nc4ccc(C(N)=O)cc4s3)cn2)CC1 [Compound 42]	0.015 µM	–	–
OCC1CCN(c2ncc(-c3nc4ccc(O)cc4s3)cn2)CC1 [Compound 57]	0.012 µM	0.302 µM	25
COc1ccc2nc(-c3cnc(N4CCC(CCO)CC4)nc3)sc2c1 [Compound 25]	0.003 µM	0.065 µM	22
OCCC1CCN(c2ccc(-c3nc4cnccc4o3)cn2)CC1 [Compound 18]	0.039 µM	–	–
CCOC(=O)C1CCN(c2ccc(-c3cc4ccc(OC)cc4[nH]3)c(F)n2)CC1 [Compound 63, Ethyl 1-[6-Fluoro-5-(6-methoxy-1H-indol-2-yl)pyridin-2-yl]piperidine-4-carboxylate]	0.0023 µM	–	–
NC(=O)C1CCN(c2ccc(-c3cc4cc(O)ccc4[nH]3)c(F)n2)CC1 [Compound 66]	0.021 µM	0.272 µM	13
COc1ccc2[nH]c(-c3ccc(N4CCC(C(N)=O)CC4)nc3)cc2c1 [Compound 71, 1-[5-(5-Methoxy-1H-indol-2-yl)pyridin-2-yl]piperidine-4-carboxamide]	0.016 µM	0.114 µM	7.1
NC(=O)c1ccc2cc(-c3cnc(N4CCC(CF)CC4)nc3)[nH]c2c1 [Compound 70, 2-{2-[4-(Fluoromethyl)piperidin-1-yl]pyrimidin-5-yl}-1H-indole-6-carboxamide]	0.02 µM	–	–
OCC1CCN(c2ccc(-c3cc4cc(OCCF)ccc4[nH]3)cn2)CC1 [Compound 77]	0.014 µM	–	–
COC(=O)C1CCN(c2ccc(-c3cc4cc(O)ccc4[nH]3)c(F)n2)CC1 [Compound 67]	0.004 µM	0.032 µM	8
c1ccc2oc(-c3ccc(N4CCCCC4)nc3)nc2c1 [Compound 14]	0.022 µM	–	–
OCCC1CCN(c2ncc(-c3cc4ccccc4o3)cn2)CC1 [Compound 28]	0.01 µM	0.015 µM	1.5
COc1ccc2nc(-c3ccc(N4CCC(CCF)CC4)nc3)sc2c1 [Compound 24]	0.002 µM	0.001 µM	0.5
OCC1CCN(c2ccc(-c3cc4cccnc4[nH]3)c(F)n2)CC1 [Compound 73, [1-(6-Fluoro-5-{1H-pyrrolo[2,3-b]pyridin-2-yl}pyridin-2-yl)piperidin-4-yl]methanol]	0.041 µM	–	–
COc1cnc2[nH]c(-c3ccc(N4CCC(CO)CC4)nc3F)cc2c1 [Compound 74]	0.014 µM	–	–
OCCC1CCN(c2ccc(-c3nc4ccc(O)cc4s3)cn2)CC1 [Compound 36]	0.003 µM	0.091 µM	30
OC1CCN(c2ccc(-c3nc4ccccc4s3)cn2)CC1 [Compound 4]	0.043 µM	–	–
OCCC1CCN(c2ccc(-c3nc4ccc(OCC(O)CF)cc4s3)cn2)CC1 (stereo not shown) [Compound 37]	0.014 µM	–	–

Compound	IC50 [1]	IC50 [2]	Selectivity for tau relative to Aβ [1]
CNC(=O)c1ccc2cc(-c3ccc(N4CCC(CO)CC4)nc3F)[nH]c2c1 [Compound 64, 2-{2-Fluoro-6-[4-(hydroxymethyl)piperidin-1-yl]pyridin-3-yl}-N-methyl-1H-indole-6-carboxamide]	0.024 µM	–	–
N#CC1CCN(c2ccc(-c3nc4ccccc4o3)cn2)CC1 [Compound 17]	0.073 µM	–	–
OCC1CCN(c2ccc(-c3nc4ccccc4s3)cn2)CC1 [Compound 1]	0.019 µM	–	–
CCOC(=O)c1ccc2nc(-c3cnc(N4CCC(CCO)CC4)nc3)sc2c1 [Compound 59]	0.005 µM	–	–
CC1CCN(c2ccc(-c3nc4ccccc4o3)cn2)CC1 [Compound 16]	0.059 µM	–	–
COC1CCN(c2ccc(-c3nc4ccccc4o3)cn2)CC1 [Compound 15]	0.039 µM	–	–
FCC1CCN(c2ccc(-c3nc4ccccc4s3)cn2)CC1 [Compound 2]	0.007 µM	–	–
O=C(NCCF)c1ccc2nc(-c3cnc(N4CCC(CCO)CC4)nc3)sc2c1 [Compound 61]	0.019 µM	–	–
OCCOC1CCN(c2ncc(-c3cc4ccccc4o3)cn2)CC1 [Compound 31]	0.015 µM	–	–
NC(=O)COC1CCN(c2ncc(-c3cc4ccccc4o3)cn2)CC1 [Compound 34]	0.032 µM	–	–
OCCC1CCN(c2ncc(-c3nc4ccccc4[nH]3)cn2)CC1 [Compound 49, 2-{1-[5-(1H-1,3-Benzodiazol-2-yl)pyrimidin-2-yl]piperidin-4-yl}ethan-1-ol]	0.049 µM	–	–
COS(=O)(=O)CCC1CCN(c2ncc(-c3cc4ccccc4o3)cn2)CC1 [Compound 29]	0.032 µM	–	–
OCC1CCN(c2ccc(-c3cc4cc(O)cnc4[nH]3)c(F)n2)CC1 [Compound 75]	0.014 µM	–	–
FCCC1CCN(c2ccc(-c3nc4ccccc4o3)cn2)CC1 [Compound 13]	0.013 µM	–	–
FCCC1CCN(c2ccc(-c3nc4cnccc4o3)cn2)CC1 [Compound 20]	0.06 µM	–	–
OCC1CCN(c2ccc(-c3nc4ccc(O)cc4s3)cn2)CC1 [Compound 55]	0.007 µM	–	–
CS(=O)(=O)OCCC1CCN(c2ccc(-c3nc4ccccc4o3)cn2)CC1 [Compound 12]	0.017 µM	–	–
Cc1ccc(S(=O)(=O)OCCC2CCN(c3ccc(-c4nc5ccccc5s4)cn3)CC2)cc1 [Compound 8]	0.008 µM	–	–
FCCC1CCN(c2ccc(-c3nc4ccccc4s3)cn2)CC1 [Compound 9]	0.006 µM	–	–
CCOC(=O)c1ccc2nc(-c3cnc(N4CCC(CCF)CC4)nc3)sc2c1 [Compound 44]	0.004 µM	–	–
OCCC1CCN(c2ccc(-c3cc4ccccc4o3)nn2)CC1 [Compound 35]	0.1 µM	–	–
CS(=O)(=O)OCCC1CCN(c2ccc(-c3nc4cnccc4o3)cn2)CC1 [Compound 19]	0.076 µM	–	–
OCCC1CCN(c2ccc(-c3nc4ccccc4o3)cn2)CC1 [Compound 11]	0.064 µM	–	–
NC(=O)c1ccc2nc(-c3cnc(N4CCC(CCO)CC4)nc3)sc2c1 [Compound 41]	0.01 µM	–	–

Source: patent US12636385B2, “Selective ligands for tau aggregates” (Sentonix, Inc., priority 2018, dated 2026)
